The source of these data is patent US10775391B2, “Nervous system-specific transmembrane proteasome complex that modulates neuronal signaling through extracellular signaling via brain activity peptides” (THE JOHNS HOPKINS UNIVERSITY, priority 2015, dated 2020).

Assay [1] deals with T1, Neuronal Membrane Proteasome (NMP) (Mus musculus, UniProt O55234+P70195+Q60692).
T1 construct: we believe that the endogenous NMP is catalytically active; endogenous in cells; host or cells: primary cultured cortical neurons from C57Bl/6 mouse embryos
Description: Release of 35S-radiolabeled peptides (SNAPPs) from cortical neurons into media, liquid scintillation. Format: cell-based. As to conditions: baseline spontaneous activity.
Description: Cortical neurons were cultured for 12-18 days in vitro. Neurons were membrane depolarized with 55 mM extracellular KCl by addition of prewarmed depolarization buffer (55 mM KCl, 0.2 mM CaCl2, 1 mM MgCl2, 10 mM HEPES pH7.5) or a mock buffer (55 mM NaCl, final) in fresh neuronal growth media as previously described (Nature 455: 1198-1204 (2008)). Labeling was done in Neurobasal growth media with B27 supplement and without methionine or cysteine (Life Technologies, special order). ^35S methionine-cysteine (EasyTag PerkinElmer) was incorporated at 55 mCi in the cys/met free growth medium. Where indicated, MG132 (25 mM, Cell Signaling) and ATPγS (1 mM, Sigma) was added during the radioactive labeling window, 15 minutes prior to stimulation and was kept in for the duration of the stimulation.
For any chase experiment, free radioactivity was washed out with phosphate-buffered saline and replaced with fresh neuronal growth medium. […]
Quantification of SNAPPs was done by quantifying the amount of radioactivity in each sample by liquid scintillation (Wallac 1410). […]

In assay [2] the test system is GCaMP3-transfected cultured cortical neurons. Description: Calcium imaging of bicuculline-stimulated GCaMP3-transfected cortical neurons. As to conditions: for amplitude of bicuculline-induced calcium transients: 1 μM bicuculline, biotin-epoxomicin 25 μM co-administered. It counts as cell-based, mouse.
Description: Bicuculline treatment was administered as a 1 μM stimulation in calcium imaging buffer in a perfusion setup. […] Each treatment was monitored for three minutes prior to washout. […] Cells were ensured to be healthy at the end of the imaging process by stimulating with 55 mM KCl and washing out and assessing for a proper calcium signal. Quantification was done by picking multiple regions of interests in primary and secondary dendrites across multiple coverslips over different imaging days. Data was analyzed using the Time Series Analyzer V3.0 ImageJ plugin and the ROI manager. Data were pooled for all the ROIs to generate a single N value. Brains from P0-P3 mouse pups (Cre GCaMP3; Nestin-Cre ER) were dissected and plated in Neurobasal-A with B-27 supplement for two weeks. At DIV7, 4-hydroxytamoxifen (4-HT, concentration) was added to induce GCaMP expression. Neurons were imaged in a calcium-imaging buffer (130 mM NaCl, 3 mM KCl, 2.5 mM CaCl2, 0.6 mM MgCl2, 10 mM Hepes, 10 mM glucose, 1.2 mM NaHCO3 pH 7.45). Peptides were collected, filtered, and dialyzed and then lyophilized prior to resuspension in 1 mL of MilliQ water and addition onto GCaMP-encoding neurons. […] Peptides treated with Proteinase K were spun through a 10 kDa MW cutoff filter prior to addition onto neurons in order to remove Proteinase K. Random peptide mixtures contained HIV-TAT, a polybasic peptide mixture, or a crude peptide prep.
Assay [3] has as its target T2, NMP (Mus musculus, UniProt O55234+P70195+Q60692).
T2 construct: we purified NMPs from neuronal plasma membranes using a 20S purification matrix; endogenous in cells; host or cells: cultured neurons; detergent-extracted plasma membranes, isolated with the 20S proteasome purification kit (Enzo Life Sciences), assayed on beads
Description: Catalytic activity of purified NMP with fluorescent substrate SUC-LLVY-AMC. It counts as biochemical. The following applies: low concentration (0.05% final), purified NMP in vitro. As for the experimental part: In some embodiments, proteasome purification was performed as follows. Cells were treated and then immediately put on ice before purifications were performed as previously described (Methods Mol Biol 832, 423-432, 2012). Briefly, proteasomes were purified out of neuronal cytosol and detergent-extracted neuronal plasma membranes using the 20S proteasome purification kit (Enzo Life Sciences) or the 26S proteasome purification kit (UBPBio). For western blots, samples were denatured at 65° C. for 5 minutes in SDS sample buffer, resolved by SDS PAGE, transferred to nitrocellulose, and immunoblotted. For catalytic activity assays, ⅙th of the bead volume following proteasome purification was resuspended in activity assay buffer (20 mM Tris-HCl, pH8.0, 5 mM ATP, 5 mM MgCl2, 1 mM DTT). 26S proteasomal activity was assessed by the addition of 10 μM of SUC-LLVY-AMC (Enzo Life Sciences). The contribution of 20S proteasomal activity was assessed by the comparison of 26S proteasome activity to that of total proteasome activity (26S+20S), measured by the activity of samples containing SDS at a final concentration of 0.05%.

Assay [4] relates to NMP. The assay can be described thus: NMP expression by surface biotinylation, streptavidin pulldown and western blot in treated cortical neurons. It counts as cell-based. The following applies: DIV12 mouse neurons, 1 μM for 12 hours. As for the experimental part: Surface biotin-labeling was performed as previously described (Nat Neurosci 12, 879-887 2009). Whole mouse brains, cultured cells or whole animal tissue were obtained where indicated and each sample was labeled using Sulfo-NHS-LC-Biotin (ThermoFisher). Cultured cells were washed in pH 8.0 PBS (Gibco) with 1 mM CaCl2 and 2 mM MgCl2 (PBSCM) and treated with 1 mg/mL Sulfo-NHS-LC-Biotin dissolved in PBSCM for 20 minutes at 4° C. before the reaction was quenched for 10 minutes in 50 mM glycine in PBSCM. Intact tissue was quickly and manually chopped, following biotinylation for only 10 minutes at 4° C. in 0.5 mg/mL Sulfo-NHS-LC-Biotin prior to quenching the reaction.
Primary, human central nervous system (CNS) tissue, gestational weeks 19-21, were obtained under surgical written consent following protocols approved by the Johns Hopkins Institutional Review Board, based on its designation as biological waste. Tissue was mechanically chopped at 4° C., and immediately processed for surface biotinylation. For streptavidin pulldown experiments lysed cells were incubated with high capacity streptavidin agarose beads overnight and then washed thrice with RIPA buffer before resuspension in SDS sample buffer.
For western blots, samples were boiled for 5 minutes in SDS sample buffer, resolved by SDS PAGE, transferred to nitrocellulose, and immunoblotted. […]
In general terms: In western blotting, separated proteins are transferred to a membrane and probed.

Where a SMILES comes first, the peptide text is derived from it. The star is where a group is joined. Cbz = O=C(OCc1ccccc1)*

For the compound `CC(C)C[C@@H](C=O)NC(=O)[C@H](CC(C)C)NC(=O)[C@H](CC(C)C)NC(=O)OCc1ccccc1` [MG-132] (Cbz-Leu-Leu-Leu-aldehyde), the “peptide release under non-stimulating conditions” value in assay [1] is reported as “inhibited”. Also, the “amplitude of bicuculline-induced calcium transients” value in assay [2] was “similar”. In addition, the “neuronal activity-induced calcium signaling” value in assay [2] (acute addition onto neurons, within seconds) is reported as “suppressed”.

`CCCCCCCCCCCCOS(=O)(=O)[O-].[Na+]` [SDS, sodium-dodecyl-sulfate]: the “catalytic activity of the NMP” value on NMP [3] is on record as “potently stimulated”. Turning to “Aβ1-42: Aβ1-42 peptide used to treat mouse cortical neurons as an Alzheimer's disease model”, in the assay on NMP [4], the “expression of proteasome subunits in the streptavidin pulldown (NMP expression)” value is “significant decrease”.

Consider biotin-epoxomicin, for which the “amplitude of bicuculline-induced calcium transients” value in assay [2] was “strongly and rapidly attenuated”.
